Data taken from US9084791B2, “Method of inhibiting myopia and application of an adenylyl cyclase inhibitor as a drug for inhibiting myopia” (SCHOOL OF OPHTHALMOLOGY AND OPTOMETRY, WENZHOU MEDICAL …, priority 2010, dated 2015).

System: form-deprivation myopia of guinea pigs
Experiment: Monocular form-deprivation myopia in guinea pigs, sub-conjunctival injection
Type: in vivo, guinea pig
Conditions: form-deprivation eyes, 1 μM and 100 μM sub-conjunctival injection daily, after 4 weeks, vs vehicle control group
Procedure: Experimental animals were 3 weeks old, UK variety, three-color and short-haired guinea pigs. Monocular form-deprivation (FD) was performed by using a facemask, and the form-deprivation eyes were treated with adenylyl cyclase inhibitor (ACI) SQ22536 at different concentrations (for example, 1 μM and 100 μM) by sub-conjunctival injection, so as to differently decrease intraocular cAMP levels. Animals were divided into 4 groups randomly: form-deprivation control group (FD+non-injection), form-deprivation+vehicle control group (FD+vehicle) (vehicle here refers to 0.9% saline), form-deprivation+drug groups (FD+1 μM SQ22536 group and FD+100 μM SQ22536 group). Drugs were sub-conjunctivally injected at 9:00 am every day for 4 weeks. The contralateral eyes were not treated. Refraction were measured with an infrared eccentric refractometer (EIR). Corneal curvature radii were measured with a keratometer. Eye axis parameters, such as vitreous chamber depths and axial lengths, were measured with an A-scan ultrasonograph (11 MHz), respectively, before experiment, 2 weeks after treatment, and 4 weeks after treatment.

For `Nc1ncnc2c1ncn2C1CCCO1` (stereo not drawn) [SQ22536, 9-(Tetrahydro-2-furanyl)-9H-purin-6-amine], the “myopic refractive error (refraction difference between experimental eye and contralateral eye)” value (time- and concentration-dependent effect (FIG. 1)) was “less than that of the vehicle control group”, the “vitreous chamber elongation (vitreous chamber depth difference between experimental eye and contralateral eye)” value (time- and concentration-dependent effect (FIG. 2)) was “significantly less than that of the vehicle control group” and the “axial elongation (axial length difference between experimental eye and contralateral eye)” value (time- and concentration-dependent effect (FIG. 3)) was “significantly less than that of the vehicle control group”.
